# Tests used:
# Axl = target: T1, Axl (Homo sapiens, UniProt P30530); test: LanthaScreen Eu kinase binding assay for Axl; conditions: read-out: Axl kinase binding activity (Kd)
# T1 sequence (P30530 26-894): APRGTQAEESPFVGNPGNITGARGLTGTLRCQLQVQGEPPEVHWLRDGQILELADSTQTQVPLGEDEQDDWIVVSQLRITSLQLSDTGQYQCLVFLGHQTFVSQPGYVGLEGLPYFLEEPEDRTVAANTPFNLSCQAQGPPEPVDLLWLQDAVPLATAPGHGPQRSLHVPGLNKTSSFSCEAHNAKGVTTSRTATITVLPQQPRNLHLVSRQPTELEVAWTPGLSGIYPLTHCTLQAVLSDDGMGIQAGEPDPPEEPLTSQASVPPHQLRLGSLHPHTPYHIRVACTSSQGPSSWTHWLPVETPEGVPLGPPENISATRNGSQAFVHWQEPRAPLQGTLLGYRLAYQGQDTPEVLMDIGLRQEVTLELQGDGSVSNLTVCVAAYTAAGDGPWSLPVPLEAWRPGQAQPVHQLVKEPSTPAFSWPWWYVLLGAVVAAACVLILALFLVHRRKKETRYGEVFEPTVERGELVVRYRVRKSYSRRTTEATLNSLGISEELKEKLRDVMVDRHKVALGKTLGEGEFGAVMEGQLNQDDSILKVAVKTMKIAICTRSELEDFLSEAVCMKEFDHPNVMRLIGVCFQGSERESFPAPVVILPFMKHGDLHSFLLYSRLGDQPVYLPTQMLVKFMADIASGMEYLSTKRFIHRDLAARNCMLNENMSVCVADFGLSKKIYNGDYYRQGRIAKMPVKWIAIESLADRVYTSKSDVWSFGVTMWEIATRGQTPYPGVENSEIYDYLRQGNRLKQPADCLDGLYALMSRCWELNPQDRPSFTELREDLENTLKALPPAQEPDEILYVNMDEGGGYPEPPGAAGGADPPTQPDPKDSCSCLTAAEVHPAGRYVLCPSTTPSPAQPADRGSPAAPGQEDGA
# Method: (§1) LanthaScreen® Eu Kinase Binding assays were conducted at Life Technologies using the manufacturer's specifications for each kinase indicated.
# (§2) Briefly, the principle behind this assay is based upon the binding and displacement of an Alexa Fluor 647-labeled tracer to the kinase of interest. Binding of the tracer to the kinase is detected using an EU-labeled anti-tag antibody. Simultaneous binding of both the tracer and antibody to the kinase gives rise to a FRET-signal. Binding of an inhibitor to the kinase competes for binding with the tracer, resulting in a loss of FRET-signal.
# (§3) A given compound was diluted in DMSO to make a stock compound solution. The stock compound solution was serially diluted over eight steps in DMSO. Each diluted compound solution in DMSO was diluted in kinase buffer. Afterwards four kinds of working solution were prepared. First, Tracer-Working solution consists of Tracer 236 and Kinase Buffer. Second, Axl, Mer, Tyro3 or Met/anti-GST-AB-Working solution contained one of the kinases Axl, and Mer or anti-GST-AB (=anti glutathione-S-transferase antibody) in Kinase Buffer. Third, anti-GST-AB-Working solution was made with anti-GST-AB and Kinase Buffer. Last, in the DMSO-Working solution DMSO was added to Kinase Buffer to a final concentration to 3%. Each of the four kinds of working solutions were separately added to the assay plate and then incubated for 1 h at room temperature. After incubation, the assay plate was measured with respect to the FRET-Signal with the EnVision (Perkin Elmer) using the program LanthaHTRF-Assay. Data evaluation was done in the Quattro Workflow software. Kd (the equilibrium dissociation constant) values were calculated relative to vehicle (DMSO) control wells.
# Mer = target: T2, Mer (Homo sapiens, UniProt Q12866); test: LanthaScreen Eu kinase binding assay for Mer; conditions: read-out: Mer kinase binding activity (Kd)
# T2 construct: purchased Life Technologies
# T2 sequence (Q12866 21-999): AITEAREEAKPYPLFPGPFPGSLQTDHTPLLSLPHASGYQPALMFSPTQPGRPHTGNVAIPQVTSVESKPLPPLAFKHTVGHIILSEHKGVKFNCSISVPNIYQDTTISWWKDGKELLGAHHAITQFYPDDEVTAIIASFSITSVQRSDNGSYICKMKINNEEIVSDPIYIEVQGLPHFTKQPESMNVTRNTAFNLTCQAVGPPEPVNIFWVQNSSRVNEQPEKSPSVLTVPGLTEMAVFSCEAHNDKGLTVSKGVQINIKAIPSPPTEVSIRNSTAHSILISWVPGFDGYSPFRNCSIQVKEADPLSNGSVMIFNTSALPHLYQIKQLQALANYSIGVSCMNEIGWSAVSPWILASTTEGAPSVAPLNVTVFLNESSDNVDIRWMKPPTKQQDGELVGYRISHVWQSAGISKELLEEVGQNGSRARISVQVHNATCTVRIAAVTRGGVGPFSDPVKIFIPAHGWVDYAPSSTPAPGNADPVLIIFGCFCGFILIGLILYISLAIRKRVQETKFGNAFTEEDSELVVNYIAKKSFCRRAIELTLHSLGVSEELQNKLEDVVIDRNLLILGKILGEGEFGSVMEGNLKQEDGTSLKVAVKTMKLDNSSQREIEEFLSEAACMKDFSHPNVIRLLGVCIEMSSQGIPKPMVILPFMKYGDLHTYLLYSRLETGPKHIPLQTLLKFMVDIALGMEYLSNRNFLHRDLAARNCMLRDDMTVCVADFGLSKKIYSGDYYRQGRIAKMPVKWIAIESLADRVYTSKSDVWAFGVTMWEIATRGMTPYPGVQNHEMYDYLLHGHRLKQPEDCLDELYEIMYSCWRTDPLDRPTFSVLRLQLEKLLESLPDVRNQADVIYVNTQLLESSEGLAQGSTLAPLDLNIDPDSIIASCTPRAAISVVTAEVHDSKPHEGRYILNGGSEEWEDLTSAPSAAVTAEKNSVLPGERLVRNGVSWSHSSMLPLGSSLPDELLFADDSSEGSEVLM
# Method: as §1, §2, §3
smiles,measurement,setting,value
COc1cc2nccc(Oc3ccc(NC(=O)c4nn(CC(C)O)cc4OC(C)C)nc3)c2cc1OC (stereo not drawn) [Compound 151],Kd,Axl,< 100 nM
same,Kd,Mer,< 100 nM
COc1cc2nccc(Oc3ccc(NC(=O)c4nn(C5CCOC5)cc4OCC(F)(F)F)nn3)c2cc1OC (stereo not drawn) [Compound 128],Kd,Axl,< 100 nM
same,Kd,Mer,< 100 nM
COc1cc2nccc(Oc3ccc(NC(=O)c4nn(C5CCN(C)C5)cc4OCC(F)(F)F)nn3)c2cc1OC (stereo not drawn) [Compound 157],Kd,Axl,100 to 500 nM
same,Kd,Mer,100 to 500 nM
COc1cc2nccc(Oc3ccc(NC(=O)c4nn(C5CC5)cc4OC(C)C)nn3)c2cc1OC [Compound 147],Kd,Axl,< 100 nM
same,Kd,Mer,< 100 nM
CCn1cc(OC(C)C)c(C(=O)Nc2ccc(Oc3ccnc4cc(OC)c(OC)cc34)cn2)n1 [Compound 6],Kd,Axl,< 100 nM
same,Kd,Mer,< 100 nM
CNCCn1cc(OCC(F)(F)F)c(C(=O)Nc2ccc(Oc3ccnc4cc(OC)c(OC)cc34)nn2)n1 [Compound 127],Kd,Axl,≥ 500 nM
same,Kd,Mer,≥ 500 nM
COc1cc2nccc(Oc3ccc(NC(=O)c4nn(CC(C)O)cc4OCC4CCC4)nc3)c2cc1OC (stereo not drawn) [Compound 163],Kd,Axl,< 100 nM
same,Kd,Mer,< 100 nM
CCCn1cc(OCCNC)c(C(=O)Nc2ccc(Oc3ccnc4cc(OC)c(OC)cc34)cn2)n1 [Compound 140],Kd,Axl,≥ 500 nM
same,Kd,Mer,100 to 500 nM
COc1cc2nccc(Oc3ccc(NC(=O)c4nn(CC5COC5)cc4OCC(F)(F)F)nn3)c2cc1OC [Compound 123],Kd,Axl,< 100 nM
same,Kd,Mer,< 100 nM
COc1cc2nccc(Oc3ccc(NC(=O)c4nn(C5CC5)cc4NCCC(F)(F)F)nc3)c2cc1OC [Compound 142],Kd,Axl,< 100 nM
same,Kd,Mer,< 100 nM
COc1cc2nccc(Oc3ccc(NC(=O)c4nn(CCN)cc4OCC(F)(F)F)nn3)c2cc1OC [Compound 125],Kd,Axl,≥ 500 nM
same,Kd,Mer,≥ 500 nM
COc1cc2nccc(Oc3ccc(NC(=O)c4nn(CC5COC5)cc4OCC(F)(F)F)cc3C)c2cc1OC [Compound 99],Kd,Axl,< 100 nM
same,Kd,Mer,< 100 nM
COc1cc2nccc(Oc3ccc(NC(=O)c4nn(C5CCOC5)cc4OCC(F)(F)F)cn3)c2cc1OC (stereo not drawn) [Compound 138],Kd,Axl,< 100 nM
same,Kd,Mer,< 100 nM
COc1cc2nccc(Oc3ccc(NC(=O)c4nn(C5CC5)cc4OCC4COC4)nc3)c2cc1OC [Compound 143],Kd,Axl,< 100 nM
same,Kd,Mer,< 100 nM
CCn1cc(OCC2CCC2)c(C(=O)Nc2ccc(Oc3ccnc4cc(OC)c(OC)cc34)cn2)n1 [Compound 8],Kd,Axl,< 100 nM
same,Kd,Mer,< 100 nM
CCCn1cc(OCC2CCOCC2)c(C(=O)Nc2ccc(Oc3ccnc4cc(OC)c(OC)cc34)cn2)n1 [Compound 164],Kd,Axl,< 100 nM
same,Kd,Mer,< 100 nM
COc1cc2nccc(Oc3ccc(NC(=O)c4nn(C5CC5)cc4OCC(F)(F)F)nn3)c2cc1OC [Compound 112],Kd,Axl,< 100 nM
same,Kd,Mer,< 100 nM
COc1cc2nccc(Oc3ccc(NC(=O)c4nn(C5CC5)cc4OCC4CCC4)nn3)c2cc1OC [Compound 149],Kd,Axl,< 100 nM
same,Kd,Mer,< 100 nM
CNCCn1cc(OCC(F)(F)F)c(C(=O)Nc2ccc(Oc3ccnc4cc(OC)c(OC)cc34)cn2)n1 [Compound 11],Kd,Axl,< 100 nM
same,Kd,Mer,< 100 nM
CNCCn1cc(OCC(F)(F)F)c(C(=O)Nc2ccc(Oc3ccnc4cc(OC)c(OC)cc34)cc2)n1 [Compound 119],Kd,Axl,100 to 500 nM
same,Kd,Mer,100 to 500 nM
CCCn1cc(OCCN(C)C)c(C(=O)Nc2ccc(Oc3ccnc4cc(OC)c(OC)cc34)c(F)c2)n1 [Compound 165],Kd,Axl,100 to 500 nM
same,Kd,Mer,≥ 500 nM
COc1cc2nccc(Oc3ccc(NC(=O)c4nn(CC5COC5)cc4OCC(F)(F)F)cc3F)c2cc1OC [Compound 97],Kd,Axl,< 100 nM
same,Kd,Mer,< 100 nM
COc1cc2nccc(Oc3ccc(NC(=O)c4nn(C5CCN(C)C5)cc4OCC(F)(F)F)cc3)c2cc1OC (stereo not drawn) [Compound 100],Kd,Axl,< 100 nM
same,Kd,Mer,< 100 nM
COc1cc2nccc(Oc3ccc(NC(=O)c4nn(CC(C)C)cc4OCC(F)(F)F)cn3)c2cc1OC [Compound 103],Kd,Axl,< 100 nM
same,Kd,Mer,< 100 nM
COc1cc2nccc(Oc3ccc(NC(=O)c4nn(C5CC5)cc4OCC4COC4)nn3)c2cc1OC [Compound 161],Kd,Axl,< 100 nM
same,Kd,Mer,< 100 nM
COc1cc2nccc(Oc3ccc(NC(=O)c4nn(C5CCNC5)cc4OCC(F)(F)F)nn3)c2cc1OC (stereo not drawn) [Compound 122],Kd,Axl,100 to 500 nM
same,Kd,Mer,100 to 500 nM
COc1cc2nccc(Oc3ccc(NC(=O)c4nn(CC(C)O)cc4OCCF)nc3)c2cc1OC (stereo not drawn) [Compound 152],Kd,Axl,< 100 nM
same,Kd,Mer,< 100 nM
CNCCn1cc(OCC(F)(F)F)c(C(=O)Nc2ccc(Oc3ccnc4cc(OC)c(OC)cc34)cc2F)n1 [Compound 154],Kd,Axl,< 100 nM
same,Kd,Mer,< 100 nM
CCCn1cc(OCC(F)(F)F)c(C(=O)Nc2ccc(Oc3ccnc4cc(OC)c(OC)cc34)nc2)n1 [Compound 139],Kd,Axl,< 100 nM
same,Kd,Mer,< 100 nM
COc1cc2nccc(Oc3ccc(NC(=O)c4nn(CCOC5CC5)cc4OCC(F)(F)F)cc3F)c2cc1OC [Compound 116],Kd,Axl,< 100 nM
same,Kd,Mer,< 100 nM
COc1cc2nccc(Oc3ccc(NC(=O)c4nn(C5CC5)cc4OCCF)nn3)c2cc1OC [Compound 113],Kd,Axl,< 100 nM
same,Kd,Mer,< 100 nM
COc1cc2nccc(Oc3ccc(NC(=O)c4nn(C5CC5)cc4NCC(F)(F)F)nn3)c2cc1OC [Compound 148],Kd,Axl,< 100 nM
same,Kd,Mer,< 100 nM
COc1cc2nccc(Oc3ccc(NC(=O)c4nn(C5CC5)cc4OCC4CCC4)nc3)c2cc1OC [Compound 111],Kd,Axl,< 100 nM
same,Kd,Mer,< 100 nM
COc1cc2nccc(Oc3ccc(NC(=O)c4nn(CCOC5CC5)cc4OCC(F)(F)F)nn3)c2cc1OC [Compound 120],Kd,Axl,< 100 nM
same,Kd,Mer,< 100 nM
COc1cc2nccc(Oc3ccc(NC(=O)c4nn(C5CC5)cc4OCC(F)F)nc3)c2cc1OC [Compound 109],Kd,Axl,< 100 nM
same,Kd,Mer,< 100 nM
COc1cc2nccc(Oc3ccc(NC(=O)c4nn(C5CC5)cc4OC(C)C)nc3)c2cc1OC [Compound 108],Kd,Axl,< 100 nM
same,Kd,Mer,< 100 nM
CNCCOc1cn(C2CC2)nc1C(=O)Nc1ccc(Oc2ccnc3cc(OC)c(OC)cc23)nn1 [Compound 160],Kd,Axl,≥ 500 nM
same,Kd,Mer,≥ 500 nM
COc1cc2nccc(Oc3ccc(NC(=O)c4nn(CCN(C)C)cc4OCC(F)(F)F)nc3)c2cc1OC [Compound 9],Kd,Axl,< 100 nM
same,Kd,Mer,< 100 nM
CCCn1cc(OCC(F)(F)F)c(C(=O)Nc2ccc(Oc3ccnc4cc(OC)c(OC)cc34)cn2)n1 [Compound 7],Kd,Axl,< 100 nM
same,Kd,Mer,< 100 nM
